Assay results: patent US20240287080A1 (IDEAYA Biosciences Inc., priority 2021, published 2024)

Target: T1, Pol theta (1-899) (Homo sapiens, UniProt O75417)
T1 construct: Pol theta (1-899) (5 nM) in assay buffer
Test: Pol theta ATPase activity, NADH oxidation-coupled enzymatic assay (ATPase NADH coupling: Standard Screening: hPolQ)
Assay type: biochemical
Details: Pol theta (1-899) 5 nM, NADH oxidation-coupled ATPase assay; compounds of Table 3
Summary of the method: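 NADH-coupled ATPase readout: 5 nM Pol theta (1-899) preincubated 15 min with 10-point compound series in Tris pH 7.80, KCl, MgCl2, DTT, BSA, Tween, glycerol, then 100 μM ATP, 300 nM 50-mer poly-dT ssDNA, NADH, PEP, LDH and PK added (stock levels). A340 followed 60 min; slopes fit four-parameter for IC50.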

T1 sequence (O75417 1-899): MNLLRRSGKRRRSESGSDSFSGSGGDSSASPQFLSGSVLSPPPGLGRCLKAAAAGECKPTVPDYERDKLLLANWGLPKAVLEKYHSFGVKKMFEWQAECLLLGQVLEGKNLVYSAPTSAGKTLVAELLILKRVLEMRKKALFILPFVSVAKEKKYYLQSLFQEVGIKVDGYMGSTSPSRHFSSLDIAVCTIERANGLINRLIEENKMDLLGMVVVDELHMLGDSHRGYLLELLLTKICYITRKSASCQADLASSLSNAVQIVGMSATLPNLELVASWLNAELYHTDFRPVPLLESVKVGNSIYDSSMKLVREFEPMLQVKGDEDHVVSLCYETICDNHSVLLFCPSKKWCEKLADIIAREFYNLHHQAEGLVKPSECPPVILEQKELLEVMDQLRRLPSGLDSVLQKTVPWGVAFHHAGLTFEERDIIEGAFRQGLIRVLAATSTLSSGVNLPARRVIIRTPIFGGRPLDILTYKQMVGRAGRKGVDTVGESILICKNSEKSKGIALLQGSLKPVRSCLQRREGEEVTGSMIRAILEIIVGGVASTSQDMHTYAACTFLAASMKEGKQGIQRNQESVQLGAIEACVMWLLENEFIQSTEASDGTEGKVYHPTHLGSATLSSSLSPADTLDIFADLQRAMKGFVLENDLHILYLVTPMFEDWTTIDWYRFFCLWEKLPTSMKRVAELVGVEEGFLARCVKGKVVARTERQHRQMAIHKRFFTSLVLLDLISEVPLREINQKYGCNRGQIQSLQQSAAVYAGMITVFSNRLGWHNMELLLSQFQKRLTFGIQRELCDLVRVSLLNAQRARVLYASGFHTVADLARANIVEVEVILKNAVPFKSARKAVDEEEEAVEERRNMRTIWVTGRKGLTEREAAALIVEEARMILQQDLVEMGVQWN

| IC50 [nM] | Compound |
| --- | --- |
| 500 to 1000 | COc1nnc(NC(=O)c2cnc(C)cc2-c2ccc(F)cc2C)s1 [Example 428, 4-(4-fluoro-2-methylphenyl)-N-(5-methoxy-1,3,4-thiadiazol-2-yl)-6-methylpyridine-3-carboxamide] |
| ≤ 200 | COc1nnc(NC(=O)c2cc(OC(F)F)ncc2-c2cc(Cl)ncc2OC)s1 [Example 265, 2′-chloro-6-(difluoromethoxy)-5′-methoxy-N-(5-methoxy-1,3,4-thiadiazol-2-yl)-[3,4′-bipyridine]-4-carboxamide] |
| 200 to 500 | COc1cnc(Cl)cc1-c1cc(C)ncc1C(=O)Nc1nnc(O[C@@H]2C[C@H](F)CN(C(C)C)C2)s1 (single isomer, unassigned) [Example 283] |
| 200 to 500 | COc1nnc(NC(=O)c2cc(C#N)ncc2-c2cc(Cl)ncc2OC)s1 [Example 290, 2′-chloro-6-cyano-5′-methoxy-N-(5-methoxy-1,3,4-thiadiazol-2-yl)-[3,4′-bipyridine]-4-carboxamide] |
| 500 to 1000 | COc1nnc(NC(=O)c2cnc(C)cc2-c2cc(Cl)c([S+](C)[O-])cc2OC)s1 (single isomer, unassigned) [Example 298] |
| 1000 to 10000 | COc1cc(C)c(-c2cc(C)ncc2C(=O)Nc2nnc(OC)s2)cn1 [Example 463, 6-methoxy-N-(5-methoxy-1,3,4-thiadiazol-2-yl)-4,6′-dimethyl-[3,4′-bipyridine]-3′-carboxamide] |
| ≤ 200 | COc1nnc(NC(=O)c2cc(F)c(C)cc2-c2cc(Cl)ncc2OC)s1 [Example 282, 2-(2-chloro-5-methoxypyridin-4-yl)-5-fluoro-N-(5-methoxy-1,3,4-thiadiazol-2-yl)-4-methyl benzamide] |
| ≤ 200 | COc1cnc(C)cc1-c1cc(C)ncc1C(=O)Nc1nnc(OC2CC=CC2)s1 [Example 240, N-(5-(cyclopent-3-en-1-yloxy)-1,3,4-thiadiazol-2-yl)-5′-methoxy-2′,6-dimethyl-[4,4′-bipyridine]-3-carboxamide] |

The remaining lines, values behind:

| Compound | IC50 [nM] |
| --- | --- |
| COc1cnc(C)c(F)c1-c1cc(C)ncc1C(=O)Nc1nnc(O[C@H]2CCC[C@@H](O)C2)s1 (single isomer, unassigned) [Example 236] | ≤ 200 |
| COc1nnc(NC(=O)c2cnc(C)cc2-c2cnc(C#N)nc2)s1 [Example 444, 4-(2-cyanopyrimidin-5-yl)-N-(5-methoxy-1,3,4-thiadiazol-2-yl)-6-methylnicotinamide] | 1000 to 10000 |
| COc1nnc(NC(=O)c2cnc(C)cc2-c2cccnc2C)s1 [Example 461, N-(5-methoxy-1,3,4-thiadiazol-2-yl)-2,6′-dimethyl-[3,4′-bipyridine]-3′-carboxamide] | 1000 to 10000 |
| COc1nnc(NC(=O)c2cnc(C)cc2-c2cccc3cnccc23)s1 [Example 372, 4-(isoquinolin-5-yl)-N-(5-methoxy-1,3,4-thiadiazol-2-yl)-6-methylpyridine-3-carboxamide] | 200 to 500 |
| COc1nnc(NC(=O)c2cnc(C)cc2-c2ccc(C(=O)O)c(F)c2)s1 [Example 465, 2-fluoro-4-(5-((5-methoxy-1,3,4-thiadiazol-2-yl)carbamoyl)-2-methylpyridin-4-yl)benzoic acid] | 1000 to 10000 |
| COc1nnc(NC(=O)c2cnc(C)cc2-c2cccc3ccoc23)s1 [Example 367, 4-(1-benzofuran-7-yl)-N-(5-methoxy-1,3,4-thiadiazol-2-yl)-6-methylpyridine-3-carboxamide] | 200 to 500 |
| COc1nnc(NC(=O)c2cnc(C)cc2-c2ccc3c(c2)CCN(C)C3)s1 [Example 432, N-(5-methoxy-1,3,4-thiadiazol-2-yl)-6-methyl-4-(2-methyl-1,2,3,4-tetrahydroisoquinolin-6-yl)nicotinamide] | 1000 to 10000 |
| COc1nnc(NC(=O)c2cnc(C)cc2-c2cccc(N3CCOCC3)c2)s1 [Example 415, N-(5-methoxy-1,3,4-thiadiazol-2-yl)-6-methyl-4-[3-(morpholin-4-yl)phenyl]pyridine-3-carboxamide] | 1000 to 10000 |
| CNC(=O)c1ccc(-c2cc(C)ncc2C(=O)Nc2nnc(OC)s2)cc1 [Example 402, N-(5-methoxy-1,3,4-thiadiazol-2-yl)-6-methyl-4-[4-(methylcarbamoyl)phenyl]pyridine-3-carboxamide] | 1000 to 10000 |
| COc1ccc(-c2cc(C)ncc2C(=O)Nc2nnc(OC)s2)c(F)c1 [Example 445, 4-(2-fluoro-4-methoxyphenyl)-N-(5-methoxy-1,3,4-thiadiazol-2-yl)-6-methylnicotinamide] | 1000 to 10000 |
| COc1nnc(NC(=O)c2cnc(C)cc2-c2ccc3c(c2)NC(=O)CO3)s1 [Example 346, N-(5-methoxy-1,3,4-thiadiazol-2-yl)-6-methyl-4-(3-oxo-3,4-dihydro-2H-1,4-benzoxazin-6-yl)pyridine-3-carboxamide] | 1000 to 10000 |
| COc1nnc(NC(=O)c2cnc(C)cc2-c2coc3ccccc23)s1 [Example 436, 4-(1-benzofuran-3-yl)-N-(5-methoxy-1,3,4-thiadiazol-2-yl)-6-methylpyridine-3-carboxamide] | 1000 to 10000 |
| COc1nnc(NC(=O)c2cnc(C)cc2-c2cnnc(C)c2)s1 [Example 440, N-(5-methoxy-1,3,4-thiadiazol-2-yl)-6-methyl-4-(6-methylpyridazin-4-yl)nicotinamide] | 1000 to 10000 |
| COc1nnc(NC(=O)c2cnc(C)cc2-c2ccoc2)s1 [Example 390, 4-(furan-3-yl)-N-(5-methoxy-1,3,4-thiadiazol-2-yl)-6-methylpyridine-3-carboxamide] | 1000 to 10000 |
| COc1cnc(C)c(F)c1-c1cc(C)ncc1C(=O)Nc1nnc(O[C@H]2CO[C@H]3OCC[C@H]32)s1 [Example 243, 3′-fluoro-N-(5-(((3R,3aS,6aR)-hexahydrofuro[2,3-b]furan-3-yl)oxy)-1,3,4-thiadiazol-2-yl)-5′-methoxy-2′,6-dimethyl-[4,4′-bipyridine]-3-carboxamide] | ≤ 200 |

Same assay, conditions: Table 4; Pol theta (1-899) 5 nM, ATP, dT50 ssDNA

| IC50 [nM] | Compound |
| --- | --- |
| ≤ 200 | C#CCOc1nnc(NC(=O)c2ccncc2-c2ccccc2OC)s1 [Example 1, 3-(2-methoxyphenyl)-N-(5-(prop-2-yn-1-yloxy)-1,3,4-thiadiazol-2-yl)isonicotinamide] |
| ≤ 200 | CCOc1nnc(NC(=O)c2cnc(C)cc2-c2cc(Cl)ncc2OC)s1 [Example 28, 2′-chloro-N-(5-ethoxy-1,3,4-thiadiazol-2-yl)-5′-methoxy-6-methyl-(4,4′-bipyridine)-3-carboxamide] |
| ≤ 200 | CCc1cnc(Cl)cc1-c1cc(C)ncc1C(=O)Nc1nnc(OC)s1 [Example 49, 2′-chloro-5′-ethyl-N-(5-methoxy-1,3,4-thiadiazol-2-yl)-6-methyl-(4,4′-bipyridine)-3-carboxamide] |
| ≤ 200 | COc1cnc(Cl)cc1-c1cc(C)ncc1C(=O)Nc1nnc(O[C@@H]2CCOC2)s1 [Example 23, (R)-2′-chloro-5′-methoxy-6-methyl-N-(5-((tetrahydrofuran-3-yl)oxy)-1,3,4-thiadiazol-2-yl)-(4,4′-bipyridine)-3-carboxamide] |

Same assay, conditions: Table 5; Pol theta (1-899) 5 nM, ATP, dT50 ssDNA

| IC50 [nM] | Compound |
| --- | --- |
| ≤ 200 | COc1cnc(Cl)cc1-c1cc(C)ncc1C(=O)Nc1nnc(O[C@@H]2CCC[C@@](C)(O)C2)s1 (single isomer, unassigned) [Example 182] |
| ≤ 200 | COc1cnc(Cl)c(F)c1-c1cc(C)ncc1C(=O)Nc1nnc(O[C@@H]2COC3(CC3)C2)s1 (single isomer, unassigned) [Example 209] |
| ≤ 200 | COc1cnc(Cl)c(F)c1-c1cc(C)ncc1C(=O)Nc1nnc(O[C@H]2CC[C@@H](O)C2)s1 (racemic) [Example 170, rac-2′-chloro-3′-fluoro-N-(5-(((1R,3S)-3-hydroxycyclopentyl)oxy)-1,3,4-thiadiazol-2-yl)-5′-methoxy-6-methyl-(4,4′-bipyridine)-3-carboxamide] |
| ≤ 200 | COc1cnc(Cl)cc1-c1cc(C)ncc1C(=O)Nc1nnc(O[C@@]2(C)CCOC2)s1 (single isomer, unassigned) [Example 138] |
| ≤ 200 | COc1cnc(Cl)cc1-c1cc(C)ncc1C(=O)Nc1nnc(O[C@@H]2CCC[C@H](OC)C2)s1 (single isomer, unassigned) [Example 146] |
| ≤ 200 | COc1cnc(Cl)cc1-c1cc(COC2CC2)ncc1C(=O)Nc1nnc(O[C@@H]2CCOC2)s1 [Example 214, (R)-2′-chloro-6-(cyclopropoxymethyl)-5′-methoxy-N-(5-((tetrahydrofuran-3-yl)oxy)-1,3,4-thiadiazol-2-yl)-(4,4′-bipyridine)-3-carboxamide] |
| ≤ 200 | COc1cnc(Cl)cc1-c1cc(C)ncc1C(=O)Nc1nnc(O[C@H]2CC[C@]3(CCO3)CC2)s1 (single isomer, unassigned) [Example 185, N-(5-(((4s, 7s)-1-oxaspiro(3.5)nonan-7-yl)oxy)-1,3,4-thiadiazol-2-yl)-2′-chloro-5′-methoxy-6-methyl-(4,4′-bipyridine)-3-carboxamide] |

The remaining lines, values behind:

| Compound | IC50 [nM] |
| --- | --- |
| COc1cnc(Cl)c(F)c1-c1cc(C)ncc1C(=O)Nc1nnc(O[C@@H]2CCC[C@@H](O)C2)s1 (single isomer, unassigned) [Example 157] | ≤ 200 |
| COc1cnc(C)c(F)c1-c1cc(C)ncc1C(=O)Nc1nnc(O[C@H]2CC[C@](C)(O)CC2)s1 (single isomer, unassigned) [Example 224, 3′-fluoro-N-(5-(((1r,4r)-4-hydroxy-4-methylcyclohexyl)oxy)-1,3,4-thiadiazol-2-yl)-5′-methoxy-2′,6-dimethyl-(4,4′-bipyridine)-3-carboxamide] | ≤ 200 |
| COc1nnc(NC(=O)c2cnc(C)cc2-c2ccnc3nccn23)s1 [Example 88, 4-(imidazo(1,2-a)pyrimidin-5-yl)-N-(5-methoxy-1,3,4-thiadiazol-2-yl)-6-methylnicotinamide] | 1000 to 10000 |

Same assay, conditions: Table 5; values given as bound; Pol theta (1-899) 5 nM, ATP, dT50 ssDNA

| IC50 [nM] | Compound |
| --- | --- |
| > 10000 | COc1nnc(NC(=O)c2nn(C)cc2-c2cc(Cl)ncc2OC)s1 [Example 107, 4-(2-chloro-5-methoxypyridin-4-yl)-N-(5-methoxy-1,3,4-thiadiazol-2-yl)-1-methyl-1H-pyrazole-3-carboxamide] |
